Measured values as given in patent US7589201B2, “Derivatives of 1,4-diazabicyclo[3.2.1]octanecarboxamide, preparation method thereof and use of same in therapeutics” (Sanofi-Aventis, priority 2004, dated 2009).
Where a name gives a salt, the structure may show the parent alone.

Tests used:
[1] = biological target: nicotinic receptors containing the α4β2 subunit (Rattus norvegicus, UniProt P09483+P12390); test: [3H]-cytisine binding to rat brain membranes, affinity for α4β2 nicotinic receptors; details: inhibition of specific binding of 1 nM [3H]-cytisine, rat whole brain membranes
nicotinic receptors containing the α4β2 subunit, sequence (P09483 31-630): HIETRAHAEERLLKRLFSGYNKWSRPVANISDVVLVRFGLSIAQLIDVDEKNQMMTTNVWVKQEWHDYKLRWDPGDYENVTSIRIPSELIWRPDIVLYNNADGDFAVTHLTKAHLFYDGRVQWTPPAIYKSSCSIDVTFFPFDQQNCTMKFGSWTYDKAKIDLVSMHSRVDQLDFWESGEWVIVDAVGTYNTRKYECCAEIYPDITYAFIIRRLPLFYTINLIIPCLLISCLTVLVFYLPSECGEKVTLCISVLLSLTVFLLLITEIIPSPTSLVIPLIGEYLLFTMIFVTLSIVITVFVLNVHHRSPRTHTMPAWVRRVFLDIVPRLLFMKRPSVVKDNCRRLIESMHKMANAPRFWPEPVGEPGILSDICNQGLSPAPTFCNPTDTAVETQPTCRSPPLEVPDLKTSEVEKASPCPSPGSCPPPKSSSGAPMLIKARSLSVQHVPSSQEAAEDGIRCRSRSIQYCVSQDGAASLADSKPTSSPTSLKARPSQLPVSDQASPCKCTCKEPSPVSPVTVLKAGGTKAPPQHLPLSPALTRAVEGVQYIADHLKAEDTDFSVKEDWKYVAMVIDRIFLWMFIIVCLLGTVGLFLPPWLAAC
nicotinic receptors containing the α4β2 subunit, sequence (P12390 25-500): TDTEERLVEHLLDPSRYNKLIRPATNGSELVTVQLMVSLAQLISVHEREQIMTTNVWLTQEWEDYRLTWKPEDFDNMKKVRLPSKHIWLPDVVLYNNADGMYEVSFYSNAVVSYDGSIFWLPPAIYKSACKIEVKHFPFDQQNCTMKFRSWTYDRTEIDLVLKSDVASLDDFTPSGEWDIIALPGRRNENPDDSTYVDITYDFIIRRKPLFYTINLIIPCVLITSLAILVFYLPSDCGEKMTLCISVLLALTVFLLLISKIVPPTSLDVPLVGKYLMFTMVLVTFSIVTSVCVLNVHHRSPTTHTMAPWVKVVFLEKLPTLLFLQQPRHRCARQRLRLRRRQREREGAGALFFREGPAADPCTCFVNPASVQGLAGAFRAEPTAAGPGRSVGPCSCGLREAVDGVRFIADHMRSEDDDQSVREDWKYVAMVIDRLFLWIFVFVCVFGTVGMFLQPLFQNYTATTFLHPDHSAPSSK
Description: For instance, they were studied with regard to their affinity for nicotinic receptors containing the α4β2 subunit in accordance with the methods described by Anderson and Arneric in Eur. J. Pharmacol. 1994, 253, 261 and by Hall et al. in Brain Res. 1993, 600, 127. Male Sprague Dawley rats weighing 150 to 200 g are decapitated and the whole brain is removed rapidly, homogenized in 15 volumes of 0.32 M sucrose solution at […] and then centrifuged at 1000 G for 10 min. The pellet is discarded and the supernatant is centrifuged at 20,000 G at 4° C. for 20 min. The pellet is recovered and homogenized using a Polytron™ mill in 15 volumes of double-distilled water at 4° C., then centrifuged at 8,000 G for 20 min. […]
On the day of the experiment the tissue is slowly thawed and is suspended in 3 volumes of buffer. […] The reaction is stopped by filtration on Whatman GF/B™ filters pretreated with polyethyleneimine, the filters are rinsed with twice 5 ml of buffer at 4° C. and the radioactivity retained on the filter is measured by liquid scintigraphy. The non-specific binding is determined in the presence of 10 μM (−)-nicotine; the nonspecific binding represents 75% to 85% of the total binding recovered on the filter. […]

[2] = biological target: nicotinic receptors containing the α7 subunit (Rattus norvegicus, UniProt Q05941); test: biochemical; assay type: binding
nicotinic receptors containing the α7 subunit, sequence (Q05941 23-502): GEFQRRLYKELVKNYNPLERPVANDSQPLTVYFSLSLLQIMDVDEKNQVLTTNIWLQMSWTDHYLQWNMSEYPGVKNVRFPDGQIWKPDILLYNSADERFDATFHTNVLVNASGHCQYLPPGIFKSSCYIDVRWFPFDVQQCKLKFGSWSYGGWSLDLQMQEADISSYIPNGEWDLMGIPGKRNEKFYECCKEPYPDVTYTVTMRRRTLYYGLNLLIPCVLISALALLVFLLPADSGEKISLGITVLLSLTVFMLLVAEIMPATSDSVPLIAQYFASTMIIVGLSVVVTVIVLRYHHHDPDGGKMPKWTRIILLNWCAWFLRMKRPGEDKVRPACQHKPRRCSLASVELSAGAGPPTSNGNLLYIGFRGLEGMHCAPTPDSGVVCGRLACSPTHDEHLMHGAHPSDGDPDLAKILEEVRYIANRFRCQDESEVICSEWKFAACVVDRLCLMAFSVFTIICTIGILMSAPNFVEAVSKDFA

Row | Structure (SMILES) | IC50 [1] | IC50 [2]
1 | Cc1ccc2c(C(=O)N3CCN4CCC3C4)n[nH]c2n1 (racemic) [Compound 1, 3-(1,4-Diazabicyclo[3.2.1]oct-4-ylcarbonyl)-6-methyl-1H-pyrazolo[3,4-b]pyridine hydrobromide 2:1] | > 10000 nM | 56 nM
2 | O=C(c1n[nH]c2ccc(F)cc12)N1CCN2CCC1C2 (racemic) [Compound 4, 3-(1,4-Diazabicyclo[3.2.1]oct-4-ylcarbonyl)-5-fluoro-1H-indazole hydrobromide 2:1] |  | 55 nM
